{"source": "patent US20070059299A1", "about": "“S-adenosyl methionine decarboxylase inhibition for the treatment of a herpes simplex virus infection” (Institut National de la Sante et de la Recherche Medicale …, priority 2002, published 2007)", "key": {"[1]": {"system": "intracellular spermine", "assay": "Spermine quantitation in HEp2 cells exposed to MGBG (dansylation, RP-HPLC)", "format": "cell-based", "conditions": "for Relative amount of intracellular spermine, HSV infected + MGBG / Relative amount of intracellular spermine, Mock infected + MGBG: HEp2 cells, mock-infected cells without MGBG = 100%, means±SE, 3 experiments; for Relative amount of intracellular spermine, HSV infected + MGBG: 100 μM MGBG added with virus", "experimental": "HEp2 cells were grown in 6-well plates (˜10^6 cells/well). Cells were infected or treated with 100 μM MGBG for 12 h or 24 h. For HSV-1-infected cells, MGBG was added simultaneously with viral suspension. Cell extracts and standards (spermine and diaminoheptane as an internal standard, (DAH)) were dansylated according to the procedure described by Seiler (Seiler, 1970) and were then treated using the protocol adapted from Besson (Besson et al., 1986). Dansylation was proceeded in glass vials by mixing 40 μl of HClO4 extracts, 10 μl of DAH , and 100 μl of 0.3 M Na2CO3 (Merck). The reaction was initiated by adding 200 μl of freshly prepared dansyl chloride solution (5mg/ml) in acetone (SDS, spectrosol grade) and allowed to proceed overnight in the dark at room temperature. After dansylation, each sample was diluted with 700 μl H2O, vortexed and applied to a Waters Sep-Pak C18 cartridge (Birnbaum et al., 1988). After washing with 4 ml of 20% methanol, the polyamine containing fraction was eluted with 2 ml of 100% methanol. The separation of polyamines and the quantification of spermine were performed by reverse phase high performance chromatography (RP-HPLC) using a Waters system composed of two models 510 pumps, a Wisp 700 autosampler and a NEC APC4 data module recorder integrator. A Merck F 1050 fluorescence spectrophotometer detected fluorescence (350 nm excitation and 495 nm emission). The separations were performed on a RP18 Merck Lichrocart (25×4 mm, 5 μm) precolumn and a RP18, 100 CH Merck column (125×4 mm; spherical packing 5 μm). The solvent system was an acetonitrile/water gradient at a flow rate of 1 ml/min of acetonitrile 60% in water for 7 min, then acetonitrile 90% for 10 min and a 98% acetonitrile purge for 5 min. The column was reequilibrated to initial 60% acetonitrile conditions during 10 min between two successive injections. For each determination, 50 or 100 μl of dansylated samples were injected onto the column equilibrated in 60% acetonitrile. Spermine was identified by its retention time compared to that of standard spermine. Peak areas were automatically measured by the integrator and evaluated according to the calibration method (Birnbaum et al., 1988). Spermine standard from 10 to 70 pmol was reacted and chromatographed to establish linear standard curve which was used to estimate the absolute amounts of spermine. The absolute limit of detection per injection was 1 pmol for dansylated spermine. Two blank injections were routinely run between calibrations and sample analysis. Mock-infected cells grown in the absence of MGBG were used as the control of intracellular spermine content and was therefore used as 100% value.\nMGBG is known to alter the polyamine synthesis in inactivating SAMDC. Therefore, the amount of intracellular spermine was assessed in mock-infected and infected cells after MGBG exposure. Cells were grown for 12 h and 24 h in the presence of 100 μM MGBG which was added to cell medium simultaneously with virus particles for HSV-1 infected cells. Intracellular spermine content was estimated by standard procedure (Besson et al., 1986; Birnbaum et al., 1988; Seiler, 1970)."}, "[2]": {"system": "acyclovir-resistant reference strain DM21", "assay": "Antiviral susceptibility testing by ELISA on HEp-2 cells, strain DM21", "format": "cell-based, HSV 1", "conditions": "HEp-2 cells, ELISA; median of at least three assays; drugs diluted in μM; read-out: Susceptibility of strain DM21 (concentration causing 50% inhibition of viral replication, IC50), median", "experimental": "Three HSV 1 reference strains were tested : SC16 (acyclovir-susceptible reference strain; (Hill et al., 1975)), DM21 (acyclovir-resistant reference strain derived from SC16; (Efstathiou et al., 1989)) and TP 2.5 (foscarnet-resistant reference strain derived from SC16; (Larder and Darby, 1985)). Antiviral assays were performed in duplicate on HEp-2 cells seeded in 96 wells microplates. Dilutions of virus and drugs were prepared in E-MEM without FCS. Cells were first treated for 24 hours with MGBG using a series of 6 twofold serial dilutions from 12.5 to 400 μM. Infection was then achieved with 5 tenfold dilutions of cell-associated virus (10^−1 to 10^−5). Each dilution was incubated with a series of 6 concentrations of each antiviral drug (from 12.5 to 400 μM in twofold dilutions for MGBG, from 0.16 to 500 μM in fivefold dilutions for acyclovir and from 31 to 1000 μM in twofold dilutions for foscarnet). […] After incubation at 36° C. with 5% CO2 for 24 hours post-infection, medium was replaced with freshly prepared dilutions of MGBG. Viral multiplication was checked 24 hours afterwards by an ELISA (Morfin et al., 1999), using a rabbit monoclonal anti-HSV 1 antibody (BO 114, Dako) and a protein A peroxidase-conjugated (BioRad). The substrate, 2,2′-azino-di(3-ethyl-benzthiazoline) sulfonic acid (ABTS) diluted in ABTS buffer (Boehringer, Mannheim), was added to each well. After 30 min at room temperature, the plates were briefly agitated and optical densities were read at 405 nm with a multichannel spectrophotomoter (Titertek-Multiskan). Optical density values were used with the Biolise program (Life Sciences International) to calculate the concentration of the drug causing a 50% inhibition of viral replication (IC50) by logistic regression analysis.\nThe capacity of MGBG to preclude infection of three HSV-1 acyclovir and/or foscarnet resistant strains was tested. The reference strains used in this study were the SC16 acyclovir-susceptible reference strain, the DM21 acyclovir-resistant reference strain derived from SC16 and the TP 2.5 foscarnet-resistant reference strain derived from SC16 (Efstathiou et al., 1989; Hill et al., 1975; Larder and Darby, 1985). In each experiment, dose response curves were constructed for […], for acyclovir, and for MGBG. The ED values were determined."}, "[3]": {"system": "HEp2 cells", "assay": "Estimation of growth and viability of uninfected HEp2 cells (trypan blue counting)", "format": "cell-based", "experimental": "Uninfected HEp2 cells were grown in the absence (control) and the presence of 10 to 500 μM of MGBG for 24 h, 30 h and 48 h. Every 24 h, medium was replaced with fresh medium containing the same concentration of MGBG. At the time of harvesting, culture medium was collected from wells of untreated control cells and treated cells. Then cells from the monolayers were gently trypsinized and added to the corresponding previous cell culture medium. Total cells were collected by gentle centrifugation at 500×g and were resuspended in PBS containing 0.2% trypan blue. For each experiment, total cells, living cells and dead cells were counted.\nThe effect of MGBG on cell growth and viability was investigated. HEp2 cells were incubated in FCS free medium, in the presence of 10 μM to 500 μM of MGBG for 24 h, 30 h and 48 h. After harvesting, total cells, living cells and dead cells were counted."}, "[4]": {"system": "HSV-1 proteins, mRNA and DNA", "assay": "Levels of viral proteins (Western blot), mRNA and DNA (slot blot) in infected HEp2 cells", "format": "cell-based", "description": "Total RNA and DNA from control mock-infected and infected HEp2 cells were purified using Qiagen RNA/DNA kit. RNA were submitted to DNAse/RNAse free digestion (1.5 unit/μg RNA) and DNA were submitted to RNAse A digestion (10 units/μg). Quantitation of SAMDC mRNA, of viral mRNAs and viral DNA present in each sample was determined by slot blot analysis using the 1250 bp PstI/PvuII fragment of pSAMr1 plasmid (Pajunen et al., 1988). The 746 bp SalI-EcoNI fragment of pSG28 and the 1308 bp MluI fragment of pSG124 plasmids (Goldin et al., 1981) were labelled with [^32P] and used as probes to detect the immediate early ICP27 and the early UL42 mRNAs respectively. Us11 late mRNA was detected with [^32P]-labelled probe composed of the 230 bp XhoI fragment of pHSV-Us12 plasmid (Diaz et al., 1996). Viral DNA was detected using the ICP27 specific DNA probe.\nMock-infected and HSV-1-infected HEp2 cells were washed three times with ice cold phosphate-buffered saline (PBS) (130 mM NaCl, 4 mM Na2HPO4.2H2O, 1.5 mM KH2PO4), scrapped into PBS, and collected by centrifugation at 500×g. Cells were resuspended in Laemmli buffer (Laemmli, 1970). Proteins were resolved by polyacrylamide gel electrophoresis and transferred by electroblotting onto a polyvinylidene difluoride membrane (Immobilon-P; Millipore). Viral proteins were analysed by Western blots (10 μg aliquots) using a 50 fold dilution of either a rabbit polyclonal anti-ICP27 antibody, or a rabbit polyclonal anti-Us11 antibody (Diaz et al., 1993), or a mouse monoclonal anti-UL42 antibody diluted 50 fold.\nCells were pre-treated with 10 to 200 μM of MGBG, then infected with HSV-1 in the presence of the same concentrations of MGBG. Proteins, RNA and DNA were extracted from cells infected for 24 h. Viral proteins were detected by Western blot using specific antibodies, whereas viral mRNA and DNA levels were assayed by slot blot analysis."}}}
{"smiles": "CC(C=NNC(=N)N)=NNC(=N)N", "note": "[MGBG, methylglyoxal bis(guanylhydrazone)]", "values": [{"measurement": "amount of intracellular spermine relative to control mock-infected cells grown without MGBG", "setting": "[1]; 100 μM MGBG, both mock-infected and HSV-1-infected cells", "value": "60-65%"}, {"measurement": "Relative amount of intracellular spermine, HSV infected + MGBG", "setting": "[1]; 12 h", "value": "61.8 ± 9.0", "unit": "%"}, {"measurement": "Relative amount of intracellular spermine, HSV infected + MGBG", "setting": "[1]; 24 h", "value": "66.2 ± 7.0", "unit": "%"}, {"measurement": "Relative amount of intracellular spermine, Mock infected + MGBG", "setting": "[1]; 100 μM MGBG, 12 h", "value": "60.6 ± 1.4", "unit": "%"}, {"measurement": "Relative amount of intracellular spermine, Mock infected + MGBG", "setting": "[1]; 100 μM MGBG, 24 h", "value": "65.3 ± 14.3", "unit": "%"}, {"measurement": "IC50", "setting": "[2]", "value": 75, "unit": "µM"}, {"measurement": "percentage of dead cells of total cells", "setting": "[3]; 25 μM MGBG, 48 h", "value": 10, "unit": "%"}, {"measurement": "percentage of dead cells of total cells", "setting": "[3]; 500 μM MGBG, 24 h", "value": 9, "unit": "%"}, {"measurement": "percentage of dead cells of total cells", "setting": "[3]; 500 μM MGBG, 30 h", "value": 24, "unit": "%"}, {"measurement": "cell growth", "setting": "[3]; 500 μM MGBG, FCS free", "value": "did not grow anymore"}, {"measurement": "growth rate of cells compared to control cells grown without MGBG", "setting": "[3]; 24 h and 30 h, less than 200 μM MGBG, FCS free", "value": "no drastic difference"}, {"measurement": "percentage of dead cells of total cells", "setting": "[3]; less than 500 μM MGBG for 24 h and 30 h, less than 25 μM MGBG for 48 h", "value": "≤ 5", "unit": "%"}, {"measurement": "viral replication", "setting": "[4]; 6 h pre-treatment with 100 μM MGBG, MGBG alone, 24 h p.i.", "value": "totally inhibited"}, {"measurement": "viral DNA level, viral mRNA and proteins", "setting": "[4]; cells pre-treated with 10 to 200 μM MGBG, infected 24 h, dose dependant", "value": "significantly decreased"}]}
